Assay results: US20220332799A1, “HERV INHIBITORS FOR USE IN TREATING TAUOPATHIES” (Deutsches Zentrum Für Neurodegenerative Erkrankungen E.V. …, priority 2019, published 2022)
Entries after “also recorded” stand apart in the source; their conditions may differ.

Tests used:
[1] = system: HERV-W Env (Syncytin-1) mRNA; assay: Quantitative real-time PCR of Syncytin-1 in MCF-7 cells; type: cell-based, human; details: MCF-7 Tau-GFPAD cells, 2 μM for 4 d; vs DMSO
Protocol: FIG. 14: Human endogenous retroviruses contribute to the spreading of protein aggregates. • a. Experimental workflow. A human breast cancer cell line MCF-7 (4) was engineered to stably express Tau-GFP and induced to propagate Tau aggregates by exposure to Alzheimer's disease brain homogenate (AD). A single cell clone was subsequently isolated and used in the experiment (MCF-7 Tau-GFPAD). This donor clone was treated with 2 μM 5-Aza-2-deoxycytidine (Aza) for 4 d to de-repress HERV expression. Pretreated donor cells were cocultured with HEK-Tau-FRsol cells. • b. […] Statistics: Unpaired Student's t-test (n=3). • c. Quantitative analysis of recipient cells with induced Tau-FR aggregates following coculture with DMSO-treated or Aza-treated donor cells. Statistics: Unpaired Student's t-test (n=6). • d. […] Recipients were subsequently cocultured with transduced donors that had been passaged at least 5 times post transduction. • e. shRNA-mediated downregulation of Syncytin-1 mRNA in MCF-7 Tau-GFPAD cells assessed by quantitative real-time PCR. […] Quantitative analysis of recipient cells with induced Tau-FR aggregates following coculture with donors with decreased HERV-W Syncytin-1 expression. […]
Total RNAs from cell pellets were isolated using the RNeasy Mini Kit or RNeasy Lipid Tissue Mini Kit (Qiagen). RNA concentration and quality were determined with Agilent 2100 Bioanalyzer System. […]

MuERV Env = assay: Western blot of Env maturation in donor cell lysates and EVs; type: cell-based, mouse; details: donor cells 10 μM, 3 days, vs DMSO
Protocol: Cell lysates and EVs derived from Amprenavir-treated donor cell clone N2a NM-HA^agg s2E were analyzed for Env maturation by Western blot. Amprenavir-treated cell lysate and EVs lack the proteolytical mature Env transmembrane (TM) fragment p15E required for receptor binding. Cleaved products and degradation intermediates were detected by anti-MuLV virus antibody ABIN457298. Presumed bands representing Env precursor protein (gp85 and gp70), Pr15E or cleavage product (p15E) are indicated. • b., c. Aggregate induction in recipient N2a NM-GFP^sol cells cocultured with Amprenavir-pretreated N2a NM-HA^agg s2E donor cells or (c) in recipient cells exposed to EVs derived from Amprenavir-treated donors. • d. EVs from donor clone N2a NM-HA^agg s2E were incubated with increasing concentrations of anti-Env antibody mAb83A25 for 1 h and added to recipient N2a NMGFP^sol cells for 16 h. • e, g. Donor clone N2a NM-HA^agg s2E was transfected with three individual siRNAs (SEQ ID NO 14-19) against endogenous Env (e) or (SEQ ID NO 20-25) against Gag (g). […] MuERV Env and Gag protein levels were analyzed by Western blot. • l. […] Recipient N2a NM-GFP^sol cells were transfected with two siRNAs against XPR1 (SEQ ID NO 26-29), siRNA against mCat-1 (SEQ ID NO 30 and 31) or with non-silencing siRNA control. mRNA knock-down was assessed 48 h post siRNA transfection by quantitative PCR. […]

SMILES: Nc1ncn([C@H]2C[C@H](O)[C@@H](CO)O2)c(=O)n1 [Decitabine, 5-aza-2′-deoxycytidine]
- Syncytin-1 mRNA levels [1]: enhanced Syncytin-1 mRNA levels; also recorded: increased HERV-W Env (Syncytin-1) expression

SMILES: CC(C)CN(C[C@@H](O)[C@H](Cc1ccccc1)NC(=O)O[C@H]1CCOC1)S(=O)(=O)c1ccc(N)cc1 [Amprenavir]
- Env protein maturation to TM p15E (MuERV Env): efficiently inhibited Env protein maturation to TM p15E; also recorded: inhibits maturation of endogenous MuERV proteins, including Env
